Experimental data reported in ChEMBL document CHEMBL5325470, “Design, synthesis and mechanism studies of dual EZH2/BRD4 inhibitors for cancer therapy” (Bioorg Med Chem, 2023).
The source made the active and inactive calls. The rule behind the calls is not given here.

How the values were obtained:
[1] = target: T1, Histone-lysine N-methyltransferase EZH2 (Homo sapiens, UniProt Q15910); assay: Inhibition of EZH2 in human A549 cells assessed as decrease in H3K27ac level at 18 uM incubated for 48 hrs by Western blotting analysis; format: cell-based
Target sequence in this assay (Q15910 whole entry, looked up): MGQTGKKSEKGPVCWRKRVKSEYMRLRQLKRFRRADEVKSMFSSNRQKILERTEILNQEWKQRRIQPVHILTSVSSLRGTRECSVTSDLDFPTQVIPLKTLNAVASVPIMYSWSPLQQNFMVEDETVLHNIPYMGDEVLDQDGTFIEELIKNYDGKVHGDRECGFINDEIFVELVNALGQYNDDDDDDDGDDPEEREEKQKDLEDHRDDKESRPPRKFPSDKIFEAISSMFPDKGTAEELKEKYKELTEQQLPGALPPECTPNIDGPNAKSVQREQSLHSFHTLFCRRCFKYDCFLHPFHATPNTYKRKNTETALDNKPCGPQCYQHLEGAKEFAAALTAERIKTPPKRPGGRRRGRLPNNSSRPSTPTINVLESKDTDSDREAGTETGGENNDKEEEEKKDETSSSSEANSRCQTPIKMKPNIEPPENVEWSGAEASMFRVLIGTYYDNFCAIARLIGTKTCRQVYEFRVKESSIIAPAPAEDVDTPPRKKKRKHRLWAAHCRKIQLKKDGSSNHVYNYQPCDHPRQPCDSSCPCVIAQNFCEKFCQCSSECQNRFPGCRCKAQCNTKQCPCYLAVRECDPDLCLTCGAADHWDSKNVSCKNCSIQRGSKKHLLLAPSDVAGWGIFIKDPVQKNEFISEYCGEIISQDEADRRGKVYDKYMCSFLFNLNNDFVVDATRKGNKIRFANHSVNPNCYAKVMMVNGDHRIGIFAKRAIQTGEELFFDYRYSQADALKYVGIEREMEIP

A549 [2] = assay: Antiproliferative activity against human A549 cells incubated for 72 hrs by MTT assay; format: functional, cell-based; conditions: A549, 72 h
[3] = target: T2, Bromodomain-containing protein 4 (Homo sapiens, UniProt O60885); assay: Inhibition of BRD4 in human A549 cells assessed as reduction in c-Myc level at 2 to 8 uM incubated for 48 hrs by Western blotting analysis; format: cell-based; conditions: dose 2-8 µM
HCT-116 [4] = assay: Induction of cell cycle arrest in human HCT-116 cells assessed as accumulation of cells at G0/G1 phase at 2 to 8 uM incubated for 48 hrs by RNAase-A and PI staining based flow cytometry analysis; format: functional; conditions: dose 2-8 µM
[5] = target: T1, Histone-lysine N-methyltransferase EZH2; assay: Inhibition of EZH2 in human MDA-MB-231 cells assessed as decrease in H3K27ac level at 2 to 8 uM incubated for 48 hrs by Western blotting analysis; format: cell-based; conditions: dose 2-8 µM
Target sequence in this assay (Q15910 whole entry, looked up): as above

[6] = target: T1, Histone-lysine N-methyltransferase EZH2; assay: Inhibition of EZH2 in human MDA-MB-231 cells assessed as decrease in H3K27ac level at 12 uM incubated for 48 hrs by Western blotting analysis; format: cell-based
Target sequence in this assay (Q15910 whole entry, looked up): as above

BT-549 = assay: Antiproliferative activity against human BT-549 cells incubated for 72 hrs by MTT assay; format: functional, cell-based; conditions: BT-549, 72 h
[7] = target: T2, Bromodomain-containing protein 4; assay: Inhibition of BRD4 BD1 (unknown origin) incubated for 15 mins by TR-FRET method
[8] = target: T2, Bromodomain-containing protein 4; assay: Inhibition of BRD4 in human MDA-MB-231 cells assessed as increase in p21 level at 2 to 8 uM incubated for 48 hrs by Western blotting analysis; format: cell-based; conditions: dose 2-8 µM
MDA-MB-231 [9] = assay: Inhibition of PRC2 in human MDA-MB-231 cells assessed as reduction in H3K27me3 level at 2 to 8 uM incubated for 48 hrs by Western blotting analysis; format: cell-based; conditions: dose 2-8 µM
[10] = target: T1, Histone-lysine N-methyltransferase EZH2; assay: Inhibition of EZH2 in human HCT-116 cells assessed as decrease in H3K27ac level at 2 to 8 uM incubated for 48 hrs by Western blotting analysis; format: cell-based; conditions: dose 2-8 µM
Target sequence in this assay (Q15910 whole entry, looked up): as above

[11] = target: T2, Bromodomain-containing protein 4; assay: Inhibition of BRD4 in human HCT-116 cells assessed as reduction in c-Myc level at 2 to 8 uM incubated for 48 hrs by Western blotting analysis; format: cell-based; conditions: dose 2-8 µM
HCT-116 [12] = assay: Inhibition of PRC2 in human HCT-116 cells assessed as reduction in H3K27me3 level at 2 to 8 uM incubated for 48 hrs by Western blotting analysis; format: cell-based; conditions: dose 2-8 µM
MDA-MB-231 [13] = assay: Antiproliferative activity against human MDA-MB-231 cells incubated for 72 hrs by MTT assay; format: functional, cell-based; conditions: MDA-MB-231, 72 h
[14] = target: T1, Histone-lysine N-methyltransferase EZH2; assay: Inhibition of EZH2 (unknown origin)
Target sequence in this assay (Q15910 whole entry): as the sequence (Q15910 whole entry, looked up) above

[15] = target: T1, Histone-lysine N-methyltransferase EZH2; assay: Inhibition of EZH2 in human HCT-116 cells assessed as decrease in H3K27ac level at 12 uM incubated for 48 hrs by Western blotting analysis; format: cell-based
Target sequence in this assay (Q15910 whole entry, looked up): as above

[16] = target: T2, Bromodomain-containing protein 4; assay: Inhibition of BRD4 in human MDA-MB-231 cells assessed as reduction in c-Myc level at 2 to 8 uM incubated for 48 hrs by Western blotting analysis; format: cell-based; conditions: dose 2-8 µM
HCT-116 [17] = assay: Antiproliferative activity against human HCT-116 cells incubated for 72 hrs by MTT assay; format: functional, cell-based; conditions: HCT-116, 72 h
A549 [18] = assay: Induction of apoptosis in human A549 cells assessed as […] in Bax protein expression at 2 to 8 uM incubated for 48 hrs by Western blotting analysis; format: functional, cell-based; conditions: dose 2-8 µM
A549 [19] = assay: Inhibition of PRC2 in human A549 cells assessed as reduction in H3K27me3 level at 2 to 8 uM incubated for 48 hrs by Western blotting analysis; format: cell-based; conditions: dose 2-8 µM
[20] = Binding affinity to recombinant PRC2 complex (unknown origin) incubated for 3 hrs in presence of SAM; design: species or system Homo sapiens
HCT-116 [21] = assay: Antiproliferative activity against human HCT-116 cells assessed as reduction in number of colonies incubated for 48 hrs with replacement of normal media every day for 14 days; format: functional, cell-based; conditions: dose 2-8 µM
HCT-116 [22] = assay: Induction of apoptosis in human HCT-116 cells at 2 to 8 uM incubated for 48 hrs by Annexin V-PE/7-AAD staining based flow cytometry analysis; format: functional, cell-based; conditions: dose 2-8 µM
A549 [23] = assay: Induction of apoptosis in human A549 cells assessed as reduction in Bcl-2 protein expression at 2 to 8 uM incubated for 48 hrs by Western blotting analysis; format: functional, cell-based; conditions: dose 2-8 µM
[24] = target: T1, Histone-lysine N-methyltransferase EZH2; assay: Inhibition of EZH2 in human A549 cells assessed as decrease in H3K27ac level at 2 to 8 uM incubated for 48 hrs by Western blotting analysis; format: cell-based; conditions: dose 2-8 µM
Target sequence in this assay (Q15910 whole entry, looked up): as above

Cell membrane = assay: Induction of mitochondrial membrane potential loss in human HCT-116 cells assessed as decrease in red fluorescence incubated for 48 hrs by flow cytometry analysis; conditions: Mitochondria, dose 2-8 µM
[25] = target: T2, Bromodomain-containing protein 4; assay: Inhibition of BRD4 in human HCT-116 cells assessed as increase in p21 level at 2 to 8 uM incubated for 48 hrs by Western blotting analysis; format: cell-based; conditions: dose 2-8 µM
[26] = target: T2, Bromodomain-containing protein 4; assay: Inhibition of BRD4 in human A549 cells assessed as increase in p21 level at 2 to 8 uM incubated for 48 hrs by Western blotting analysis; format: cell-based; conditions: dose 2-8 µM

For `Cc1cc(C)c(CNC(=O)c2cc(NCCCCCNC(=O)C[C@@H]3N=C(c4ccc(Cl)cc4)c4c(sc(C)c4C)-n4c(C)nnc43)cc3c2cnn3C(C)C)c(=O)[nH]1`, the inhibition [1] was “inactive”, the IC50 (A549 [2]) was 4630 nM and the inhibition [3] was “Active”. The Activity (HCT-116 [4]) was “Active”, the inhibition [5] was “Active” and the inhibition [6] was “inactive”. The IC50 (BT-549) was 3970 nM, the IC50 [7] was 134 nM and the inhibition [8] was “Active”. The inhibition (MDA-MB-231 [9]) was “Active”, the inhibition [10] was “Active” and the inhibition [11] was “Active”. The inhibition (HCT-116 [12]) was “Active”, the IC50 (MDA-MB-231 [13]) was 2310 nM and the IC50 [14] was 82 nM. For the same compound, the inhibition [15] was “inactive”, the inhibition [16] was “Active” and the IC50 (HCT-116 [17]) was 1860 nM. The Activity (A549 [18]) was “Active”, the inhibition (A549 [19]) was “Active” and the Kd [20] was 180 nM. For the same compound, the Activity (HCT-116 [21]) was “Dose-Dependent Effect”, the Activity (HCT-116 [22]) was “Active” and the Activity (A549 [23]) was “Active”. The inhibition [24] was “Active”, the Activity (Cell membrane) was “Dose-Dependent Effect” and the inhibition [25] was “Active”. The inhibition [26] was “Active”.
